Experimental data reported in ChEMBL document CHEMBL4507320, “Data for DCP probe NVS-MALT1” (2021).

Key:
[1] = target: Rho-associated protein kinase 1 (Homo sapiens) (UniProt Q13464); details: Compound concentration 1000.0 nM
[2] = target: D(3) dopamine receptor (Homo sapiens) (UniProt P35462); details: Compound concentration 10.0 uM
[3] = target: Homeodomain-interacting protein kinase 2 (Homo sapiens) (UniProt Q9H2X6); details: Compound concentration 1000.0 nM
[4] = target: Casein kinase I isoform alpha (Homo sapiens) (UniProt P48729); details: Compound concentration 1000.0 nM
[5] = target: Ribosomal protein S6 kinase beta-1 (Homo sapiens) (UniProt P23443); details: Compound concentration 1000.0 nM
[6] = target: Ephrin type-B receptor 4 (Homo sapiens) (UniProt P54760); details: Compound concentration 1000.0 nM
[7] = target: Muscle, skeletal receptor tyrosine-protein kinase (Homo sapiens) (UniProt O15146); details: Compound concentration 1000.0 nM
[8] = target: Dual specificity mitogen-activated protein kinase kinase 3 (Homo sapiens) (UniProt P46734); details: Compound concentration 1000.0 nM
[9] = target: Serine/threonine-protein kinase LATS1 (Homo sapiens) (UniProt O95835); details: Compound concentration 1000.0 nM
[10] = target: Serine/threonine-protein kinase pim-2 (Homo sapiens) (UniProt Q9P1W9); details: Compound concentration 1000.0 nM
[11] = target: Serine/threonine-protein kinase MRCK beta (Homo sapiens) (UniProt Q9Y5S2); details: Compound concentration 1000.0 nM
[12] = target: Protein kinase C eta type (Homo sapiens) (UniProt P24723); details: Compound concentration 1000.0 nM
[13] = target: Interleukin-1 receptor-associated kinase 4 (Homo sapiens) (UniProt Q9NWZ3); details: Compound concentration 1000.0 nM
[14] = target: Mitogen-activated protein kinase 10 (Homo sapiens) (UniProt P53779); details: Compound concentration 1000.0 nM
[15] = target: Serine/threonine-protein kinase 17B (Homo sapiens) (UniProt O94768); details: Compound concentration 1000.0 nM
[16] = target: Dual specificity testis-specific protein kinase 1 (Homo sapiens) (UniProt Q15569); details: Compound concentration 1000.0 nM
[17] = target: Receptor tyrosine-protein kinase erbB-3 (Homo sapiens) (UniProt P21860); details: Compound concentration 1000.0 nM
[18] = target: Cyclin-dependent kinase 4 (Homo sapiens) (UniProt P11802); details: Compound concentration 1000.0 nM
[19] = target: Calcium/calmodulin-dependent protein kinase type II subunit alpha (Homo sapiens) (UniProt Q9UQM7); details: Compound concentration 1000.0 nM
[20] = target: Hormonally up-regulated neu tumor-associated kinase (Homo sapiens) (UniProt P57058); details: Compound concentration 1000.0 nM
[21] = target: Dual specificity mitogen-activated protein kinase kinase 4 (Homo sapiens) (UniProt P45985); details: Compound concentration 1000.0 nM
[22] = target: Cyclin-dependent kinase 19 (Homo sapiens) (UniProt Q9BWU1); details: Compound concentration 1000.0 nM
[23] = target: Focal adhesion kinase 1 (Homo sapiens) (UniProt Q05397); details: Compound concentration 1000.0 nM
[24] = test system: Epidermal growth factor receptor (Homo sapiens), P00533 [L858R]; details: Compound concentration 1000.0 nM
[25] = test system: Mast/stem cell growth factor receptor Kit (Homo sapiens), P10721 [D816V]; details: Compound concentration 1000.0 nM
[26] = target: Microtubule-associated serine/threonine-protein kinase 1 (Homo sapiens) (UniProt Q9Y2H9); details: Compound concentration 1000.0 nM
[27] = target: Serine/threonine-protein kinase ULK2 (Homo sapiens) (UniProt Q8IYT8); details: Compound concentration 1000.0 nM
[28] = target: Uncharacterized serine/threonine-protein kinase SBK3 (Homo sapiens) (UniProt P0C264); details: Compound concentration 1000.0 nM
[29] = target: Tyrosine-protein kinase CSK (Homo sapiens) (UniProt P41240); details: Compound concentration 1000.0 nM
[30] = target: Dual specificity protein kinase CLK3 (Homo sapiens) (UniProt P49761); details: Compound concentration 1000.0 nM
[31] = target: Serine/threonine-protein kinase SIK3 (Homo sapiens) (UniProt Q9Y2K2); details: Compound concentration 1000.0 nM
[32] = target: Serine/threonine-protein kinase PAK 2 (Homo sapiens) (UniProt Q13177); details: Compound concentration 1000.0 nM
[33] = target: Serine/threonine-protein kinase TAO1 (Homo sapiens) (UniProt Q7L7X3); details: Compound concentration 1000.0 nM
[34] = target: Coagulation factor X (Homo sapiens) (UniProt P00742); experiment: Factor Xa (h) Protease assay; details: Compound concentration 10.0 uM
[35] = target: Beta-1 adrenergic receptor (Homo sapiens) (UniProt P08588); details: Compound concentration 10.0 uM
Chymase (Homo sapiens) = Chymase (Homo sapiens) (UniProt P23946); experiment: Chymase (h) Protease assay; details: Compound concentration 10.0 uM

Chain of Muscle, skeletal receptor tyrosine-protein kinase (Homo sapiens) (O15146 whole entry): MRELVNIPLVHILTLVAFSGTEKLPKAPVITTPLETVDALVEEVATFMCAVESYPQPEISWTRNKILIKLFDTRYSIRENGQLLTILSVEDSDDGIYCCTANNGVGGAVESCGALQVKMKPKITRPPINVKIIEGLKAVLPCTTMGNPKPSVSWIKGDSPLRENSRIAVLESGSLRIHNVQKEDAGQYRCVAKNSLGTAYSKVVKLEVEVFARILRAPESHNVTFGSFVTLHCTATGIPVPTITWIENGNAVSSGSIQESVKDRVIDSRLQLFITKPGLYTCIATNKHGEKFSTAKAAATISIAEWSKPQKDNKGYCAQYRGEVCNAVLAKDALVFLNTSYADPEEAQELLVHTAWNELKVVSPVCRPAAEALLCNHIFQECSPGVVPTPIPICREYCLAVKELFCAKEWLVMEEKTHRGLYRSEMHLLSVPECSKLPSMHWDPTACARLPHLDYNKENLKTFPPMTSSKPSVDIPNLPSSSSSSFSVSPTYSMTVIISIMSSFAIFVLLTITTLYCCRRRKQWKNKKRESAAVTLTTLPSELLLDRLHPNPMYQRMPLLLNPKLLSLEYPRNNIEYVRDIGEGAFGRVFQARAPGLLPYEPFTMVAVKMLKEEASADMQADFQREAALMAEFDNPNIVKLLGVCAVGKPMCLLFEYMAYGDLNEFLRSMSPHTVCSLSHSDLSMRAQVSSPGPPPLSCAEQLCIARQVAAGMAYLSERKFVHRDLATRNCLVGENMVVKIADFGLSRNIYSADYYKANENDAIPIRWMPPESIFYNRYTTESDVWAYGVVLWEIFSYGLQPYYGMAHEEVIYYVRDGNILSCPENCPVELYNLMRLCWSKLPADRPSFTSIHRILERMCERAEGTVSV
Chain of D(3) dopamine receptor (Homo sapiens) (P35462 whole entry): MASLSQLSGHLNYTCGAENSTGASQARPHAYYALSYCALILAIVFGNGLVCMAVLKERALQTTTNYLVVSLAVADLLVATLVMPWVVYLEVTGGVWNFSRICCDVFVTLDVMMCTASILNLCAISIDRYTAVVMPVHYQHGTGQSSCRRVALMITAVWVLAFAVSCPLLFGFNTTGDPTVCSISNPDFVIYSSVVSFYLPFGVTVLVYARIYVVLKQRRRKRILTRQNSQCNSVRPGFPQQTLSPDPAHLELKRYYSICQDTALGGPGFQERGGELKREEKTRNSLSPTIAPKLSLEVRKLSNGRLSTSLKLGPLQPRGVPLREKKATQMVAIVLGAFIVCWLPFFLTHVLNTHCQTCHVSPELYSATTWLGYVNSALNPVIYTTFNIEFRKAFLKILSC
Chain of Serine/threonine-protein kinase PAK 2 (Homo sapiens) (Q13177 whole entry): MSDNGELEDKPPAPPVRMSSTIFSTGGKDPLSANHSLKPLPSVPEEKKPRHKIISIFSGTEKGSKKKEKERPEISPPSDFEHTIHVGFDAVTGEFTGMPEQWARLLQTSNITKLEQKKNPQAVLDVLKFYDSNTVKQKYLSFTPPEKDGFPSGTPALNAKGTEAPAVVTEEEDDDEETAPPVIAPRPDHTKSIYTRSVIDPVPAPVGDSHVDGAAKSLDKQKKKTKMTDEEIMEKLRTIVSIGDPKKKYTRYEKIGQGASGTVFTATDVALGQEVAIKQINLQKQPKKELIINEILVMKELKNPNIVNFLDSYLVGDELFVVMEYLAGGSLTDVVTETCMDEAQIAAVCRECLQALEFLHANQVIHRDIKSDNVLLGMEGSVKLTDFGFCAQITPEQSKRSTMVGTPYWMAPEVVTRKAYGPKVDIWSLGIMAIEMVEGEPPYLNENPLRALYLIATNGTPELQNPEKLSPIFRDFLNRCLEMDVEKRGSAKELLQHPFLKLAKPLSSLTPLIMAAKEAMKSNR
Chain of Ribosomal protein S6 kinase beta-1 (Homo sapiens) (P23443 whole entry, looked up): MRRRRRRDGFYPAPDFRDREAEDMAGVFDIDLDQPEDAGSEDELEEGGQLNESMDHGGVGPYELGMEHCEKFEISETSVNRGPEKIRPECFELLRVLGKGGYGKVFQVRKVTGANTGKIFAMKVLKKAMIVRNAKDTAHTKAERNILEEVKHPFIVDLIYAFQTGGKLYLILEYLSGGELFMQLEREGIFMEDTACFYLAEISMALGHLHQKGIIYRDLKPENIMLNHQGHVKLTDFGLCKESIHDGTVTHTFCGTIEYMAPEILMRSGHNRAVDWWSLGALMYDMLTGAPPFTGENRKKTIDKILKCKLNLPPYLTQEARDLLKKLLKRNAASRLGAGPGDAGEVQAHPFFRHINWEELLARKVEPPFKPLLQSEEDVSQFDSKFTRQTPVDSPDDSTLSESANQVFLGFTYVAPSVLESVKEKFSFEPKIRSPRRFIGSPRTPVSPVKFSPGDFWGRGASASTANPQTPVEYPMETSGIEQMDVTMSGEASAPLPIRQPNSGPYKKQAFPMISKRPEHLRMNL
Chain of Ephrin type-B receptor 4 (Homo sapiens) (P54760 whole entry): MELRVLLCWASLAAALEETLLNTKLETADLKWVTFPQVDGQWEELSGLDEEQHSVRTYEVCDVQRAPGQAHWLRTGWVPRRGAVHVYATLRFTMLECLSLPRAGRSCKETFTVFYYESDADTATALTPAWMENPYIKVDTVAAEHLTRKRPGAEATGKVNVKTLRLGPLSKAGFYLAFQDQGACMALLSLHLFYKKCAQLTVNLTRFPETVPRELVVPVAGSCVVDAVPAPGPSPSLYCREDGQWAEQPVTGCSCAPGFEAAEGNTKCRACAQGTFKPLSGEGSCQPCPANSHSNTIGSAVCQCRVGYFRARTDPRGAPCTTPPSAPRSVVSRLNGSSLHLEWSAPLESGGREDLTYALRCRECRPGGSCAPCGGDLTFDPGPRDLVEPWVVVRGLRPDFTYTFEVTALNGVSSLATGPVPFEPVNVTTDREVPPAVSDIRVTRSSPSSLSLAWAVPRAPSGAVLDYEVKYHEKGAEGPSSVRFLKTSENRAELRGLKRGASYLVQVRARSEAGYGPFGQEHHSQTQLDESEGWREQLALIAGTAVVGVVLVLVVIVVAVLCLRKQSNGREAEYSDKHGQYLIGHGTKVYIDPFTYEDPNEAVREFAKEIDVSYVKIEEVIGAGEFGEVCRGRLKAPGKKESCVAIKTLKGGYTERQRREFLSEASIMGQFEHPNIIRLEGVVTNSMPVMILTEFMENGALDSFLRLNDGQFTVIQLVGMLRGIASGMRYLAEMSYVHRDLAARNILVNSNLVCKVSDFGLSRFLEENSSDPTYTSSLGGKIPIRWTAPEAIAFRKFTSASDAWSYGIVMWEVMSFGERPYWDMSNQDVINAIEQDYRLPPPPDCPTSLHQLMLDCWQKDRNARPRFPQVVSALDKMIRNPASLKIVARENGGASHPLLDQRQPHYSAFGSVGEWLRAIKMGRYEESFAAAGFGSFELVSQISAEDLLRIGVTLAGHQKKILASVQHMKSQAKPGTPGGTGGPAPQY
Chain of Focal adhesion kinase 1 (Homo sapiens) (Q05397 2-1052 limits assumed): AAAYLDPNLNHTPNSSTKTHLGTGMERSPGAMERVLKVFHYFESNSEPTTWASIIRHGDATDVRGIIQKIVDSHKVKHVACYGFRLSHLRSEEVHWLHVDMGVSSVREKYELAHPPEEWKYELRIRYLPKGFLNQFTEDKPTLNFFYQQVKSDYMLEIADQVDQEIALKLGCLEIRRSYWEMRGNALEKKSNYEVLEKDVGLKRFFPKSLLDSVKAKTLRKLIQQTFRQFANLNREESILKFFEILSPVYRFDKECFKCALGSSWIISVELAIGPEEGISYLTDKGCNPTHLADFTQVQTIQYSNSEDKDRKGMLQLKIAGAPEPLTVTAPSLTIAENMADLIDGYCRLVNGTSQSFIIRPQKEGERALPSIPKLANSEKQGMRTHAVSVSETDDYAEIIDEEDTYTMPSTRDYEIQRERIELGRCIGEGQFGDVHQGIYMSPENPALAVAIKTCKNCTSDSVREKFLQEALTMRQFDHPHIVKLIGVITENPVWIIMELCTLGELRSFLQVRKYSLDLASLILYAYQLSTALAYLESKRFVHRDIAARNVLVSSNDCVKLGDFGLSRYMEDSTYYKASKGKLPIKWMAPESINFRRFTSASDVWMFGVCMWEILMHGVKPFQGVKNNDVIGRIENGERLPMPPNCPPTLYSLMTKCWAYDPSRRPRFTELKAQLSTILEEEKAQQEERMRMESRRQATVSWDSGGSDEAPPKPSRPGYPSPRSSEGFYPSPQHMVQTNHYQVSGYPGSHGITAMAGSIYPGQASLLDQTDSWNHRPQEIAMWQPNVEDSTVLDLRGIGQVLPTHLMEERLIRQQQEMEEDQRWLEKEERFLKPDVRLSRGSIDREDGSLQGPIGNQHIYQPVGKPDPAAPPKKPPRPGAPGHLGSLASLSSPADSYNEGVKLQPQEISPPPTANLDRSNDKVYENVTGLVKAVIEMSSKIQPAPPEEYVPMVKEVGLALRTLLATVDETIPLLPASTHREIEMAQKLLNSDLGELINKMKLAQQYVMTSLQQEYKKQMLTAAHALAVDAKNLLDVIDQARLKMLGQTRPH
Chain of Protein kinase C eta type (Homo sapiens) (P24723 whole entry): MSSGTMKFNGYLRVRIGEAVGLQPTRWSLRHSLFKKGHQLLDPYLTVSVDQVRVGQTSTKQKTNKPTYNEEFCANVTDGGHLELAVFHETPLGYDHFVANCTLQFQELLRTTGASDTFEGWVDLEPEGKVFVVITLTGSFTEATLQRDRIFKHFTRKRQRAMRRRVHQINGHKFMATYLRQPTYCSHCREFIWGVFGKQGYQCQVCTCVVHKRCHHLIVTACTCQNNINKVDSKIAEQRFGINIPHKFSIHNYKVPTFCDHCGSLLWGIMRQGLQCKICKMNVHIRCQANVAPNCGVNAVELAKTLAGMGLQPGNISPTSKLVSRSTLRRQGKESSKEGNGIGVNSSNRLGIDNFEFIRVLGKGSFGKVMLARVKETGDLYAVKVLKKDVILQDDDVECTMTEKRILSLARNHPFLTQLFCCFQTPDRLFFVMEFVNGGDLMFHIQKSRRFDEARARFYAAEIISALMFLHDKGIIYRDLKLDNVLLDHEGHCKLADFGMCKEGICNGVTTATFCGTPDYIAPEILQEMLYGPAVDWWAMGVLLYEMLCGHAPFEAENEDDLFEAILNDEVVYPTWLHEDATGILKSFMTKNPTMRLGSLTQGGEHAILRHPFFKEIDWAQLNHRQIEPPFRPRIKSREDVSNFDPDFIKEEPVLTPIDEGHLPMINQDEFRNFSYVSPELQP

Row | Structure (SMILES) | residual activity [1] [%] | inhibition [2] [%] | residual activity [3] [%] | residual activity [4] [%] | residual activity [5] [%] | residual activity [6] [%] | residual activity [7] [%] | residual activity [8] [%] | residual activity [9] [%] | residual activity [10] [%] | residual activity [11] [%] | residual activity [12] [%] | residual activity [13] [%] | residual activity [14] [%] | residual activity [15] [%] | residual activity [16] [%] | residual activity [17] [%] | residual activity [18] [%] | residual activity [19] [%] | residual activity [20] [%] | also measured
1 | CO[C@@H](C)c1c(Nc2ccc([C@@H](N(C)C(=O)C3CCS(=O)(=O)CC3)C(F)(F)F)cc2)cnc2cc(Cl)nn12 [NVS-MALT1-C] | 100 | -5.92 | 100 | 72 | 90 | 100 | 88 | 90 | 98 | 95 | 89 | 78 | 89 | 78 | 98 | 83 | 100 | 100 | 83 | 100 | residual activity [21]: 100%; residual activity [22]: 81%; residual activity [23]: 90%; residual activity [24]: 87%; residual activity [25]: 99%; residual activity [26]: 29%; residual activity [27]: 92%; residual activity [28]: 81%; residual activity [29]: 100%; residual activity [30]: 87%; residual activity [31]: 100%; residual activity [32]: 81%; residual activity [33]: 100%
2 | CO[C@@H](C)c1c(Nc2ccc([C@H](N(C)C(=O)C3CCS(=O)(=O)CC3)C(F)(F)F)cc2)cnc2cc(Cl)nn12 [NVS-MALT1] | 100 | -4.43 | 100 | 51 | 100 | 100 | 83 | 93 | 88 | 100 | 81 | 86 | 88 | 96 | 99 | 85 | 100 | 100 | 83 | 100 | inhibition [34]: -9%; inhibition [35]: 20.6%; residual activity [21]: 100%; residual activity [22]: 73%; residual activity [23]: 85%; residual activity [24]: 88%; residual activity [25]: 96%; residual activity [26]: 43%; residual activity [27]: 96%; residual activity [28]: 84%; residual activity [29]: 100%; inhibition (Chymase (Homo sapiens)): -3%; residual activity [30]: 87%; residual activity [31]: 100%; residual activity [32]: 76%; residual activity [33]: 100%
